Data published in patent US20240076293A1, “Compositions and Methods for Inhibiting Fibrosis, Inflammation and Cancer” (Georgia Tech Research Corporation, priority 2020, published 2024).
Like-named read-outs stand apart in the source and are kept apart here.

Assays:
Format in all cases: cell-based
[1] = tested on: MRC-5; test: Anti-proliferation IC50, MRC-5; conditions: Homo sapiens, MRC5; Table 2, compounds of formula II
[2] = tested on: Hep-G2; test: Anti-proliferation IC50, Hep-G2; conditions: Homo sapiens, HepG2
[3] = tested on: VERO; test: Anti-proliferation IC50, VERO; conditions: Chlorocebus sabaeus
[4] = tested on: A549; test: Anti-proliferation IC50, A549; conditions: Homo sapiens
[5] = tested on: MDA-MB-231; test: Anti-proliferation IC50, MDA-MB-231; conditions: Homo sapiens
[6] = tested on: MCF-7; test: Anti-proliferation IC50, MCF-7; conditions: Homo sapiens, MCF7; Anti-proliferation IC50 for the new compounds; read-out: MCF-7 (IC50 μM)
[7] = Table 2, compounds of formula II, read-out: Anti-proliferation IC50 Hep-G2
[8] = Table 2, compounds of formula II, read-out: Anti-proliferation IC50 VERO
[9] = Table 2, compounds of formula II, read-out: Anti-proliferation IC50 A549
[10] = Anti-proliferation IC50 for the new compounds, read-out: Hep-G2 (IC50 μM)
[11] = Anti-proliferation IC50 for the new compounds, read-out: MDA-MB-231 (IC50 μM)
[12] = Anti-proliferation IC50 for the new compounds, read-out: VERO (IC50 μM)

Row | SMILES | IC50 [1] [µM] | IC50 [2, 7] [µM] | IC50 [3, 8] [µM] | IC50 [4, 9] [µM] | IC50 [2, 10] [µM] | IC50 [5, 11] [µM] | IC50 [3, 12] [µM] | IC50 [6] [µM] | IC50 ([4]; Anti-proliferation IC50 for the new compounds, read-out: A549 (IC50 μM)) [µM] | IC50 ([5]; Table 2, compounds of formula II, read-out: Anti-proliferation IC50 MDA-MB-231) [µM]
1 | CC[C@@H]1OC(=O)[C@@H](C)[C@H](O)[C@@H](C)[C@H](O[C@H]2O[C@@H](C)C[C@@H](N(C)Cc3ccc(-c4cn(CCNC(=O)CCCC[C@H]5CCSS5)nn4)cc3)[C@@H]2O)C(C)(O)C[C@H](C)CN(C)[C@@H](C)[C@H](O)[C@@]1(C)O (stereo partly drawn) | 17.9 ± 0.5 | 14.8 ± 2.1 | 47.7 ± 6.2 | 27.4 ± 0.5 |  |  |  |  |  | 
2 | CC[C@H]1OC(=O)[C@H](C)[C@@H](O[C@H]2C[C@@](C)(OC)[C@@H](O)[C@H](C)O2)[C@H](C)[C@@H](O[C@@H]2O[C@H](C)C[C@H](N(C)Cc3ccc(-n4cc(C)ccc4=O)cc3)[C@H]2O)[C@](C)(O)C[C@@H](C)CN(C)[C@H](C)[C@@H](O)[C@]1(C)O [Compound 11a] | 55.8 ± 1.9 | 33 ± 5.4 | 47.2 ± 0.4 | 47.2 ± 5.1 |  |  |  |  |  | 
3 | CC[C@H]1OC(=O)[C@H](C)[C@@H](O[C@H]2C[C@@](C)(OC)[C@@H](O)[C@H](C)O2)[C@H](C)[C@@H](O[C@@H]2O[C@H](C)C[C@H](N(C)Cc3ccc(-c4cn(CCc5ccc(-n6cc(C)ccc6=O)cc5)nn4)cc3)[C@H]2O)[C@](C)(O)C[C@@H](C)CN(C)[C@H](C)[C@@H](O)[C@]1(C)O [Compound 13c] | 13.3 ± 0.9 | 21.8 ± 0.4 | 22.6 ± 4.9 | 15.8 ± 3 |  |  |  |  |  | 
4 | CC[C@H]1OC(=O)[C@H](C)[C@@H](O[C@H]2C[C@@](C)(OC)[C@@H](O)[C@H](C)O2)[C@H](C)[C@@H](O[C@@H]2O[C@H](C)C[C@H](N(C)CCCCC#Cc3ccc(-n4cc(C)ccc4=O)cc3)[C@H]2O)[C@](C)(O)C[C@@H](C)CN(C)[C@H](C)[C@@H](O)[C@]1(C)O [Compound 20d] | 5.5 ± 0.2 | 12.7 ± 1.3 | 16.2 ± 3.1 | 15.5 ± 1.1 |  |  |  |  |  | 
5 | CC[C@H]1OC(=O)[C@H](C)[C@@H](O[C@H]2C[C@@](C)(OC)[C@@H](O)[C@H](C)O2)[C@H](C)[C@@H](O[C@@H]2O[C@H](C)C[C@H](N(C)C(=O)CCCCC(CCSCc3ccccc3)SCc3ccccc3)[C@H]2O)[C@](C)(O)C[C@@H](C)CN(C)[C@H](C)[C@@H](O)[C@]1(C)O (stereo partly drawn) [AZM-613] |  |  |  |  | 2.9 | 2.1 | 6.5 | 2.8 |  | 
6 | CC[C@H]1OC(=O)[C@H](C)[C@@H](O[C@H]2C[C@@](C)(OC)[C@@H](O)[C@H](C)O2)[C@H](C)[C@@H](O[C@@H]2O[C@H](C)C[C@H](N(C)Cc3ccc(-c4cn(Cc5ccc(-n6cc(C)ccc6=O)cc5)nn4)cc3)[C@H]2O)[C@](C)(O)C[C@@H](C)CN(C)[C@H](C)[C@@H](O)[C@]1(C)O [Compound 11c] | 13.4 ± 0.1 | 11.1 ± 0.3 | 16.2 ± 2.8 | 18.4 ± 4.4 |  |  |  |  |  | 
7 | CC[C@H]1OC(=O)[C@H](C)[C@@H](O[C@H]2C[C@@](C)(OC)[C@@H](O)[C@H](C)O2)[C@H](C)[C@@H](O[C@@H]2O[C@H](C)C[C@H](N(C)Cc3ccc(-c4cn(CCCCc5ccc(-n6cc(C)ccc6=O)cc5)nn4)cc3)[C@H]2O)[C@](C)(O)C[C@@H](C)CN(C)[C@H](C)[C@@H](O)[C@]1(C)O [Compound 15c] | 5.7 ± 0.1 | 2.6 ± 0.1 | 5.9 ± 0.1 | 5 ± 0.2 |  |  |  |  |  | 
8 | CC[C@H]1OC(=O)[C@H](C)[C@@H](O[C@H]2C[C@@](C)(OC)[C@@H](O)[C@H](C)O2)[C@H](C)[C@@H](O[C@@H]2O[C@H](C)C[C@H](N(C)CCCCCC#Cc3ccc(-n4cc(C)ccc4=O)cc3)[C@H]2O)[C@](C)(O)C[C@@H](C)CN(C)[C@H](C)[C@@H](O)[C@]1(C)O [Compound 20e] | 2.2 ± 0.1 | 2.8 | 4.7 ± 0.3 | 6.1 ± 0.3 |  |  |  |  |  | 
9 | CC[C@H]1OC(=O)[C@H](C)[C@@H](O[C@H]2C[C@@](C)(OC)[C@@H](O)[C@H](C)O2)[C@H](C)[C@@H](O[C@@H]2O[C@H](C)C[C@H](N(C)C)C2OC(=O)CCCCC(CCSCc2ccccc2)SCc2ccccc2)[C@](C)(O)C[C@@H](C)CN(C)[C@H](C)[C@@H](O)[C@]1(C)O (stereo partly drawn) [AO-03-032] |  |  |  |  | 4.2 | 6.4 | 10.4 |  | 7.6 | 
10 | CC[C@H]1OC(=O)[C@H](C)[C@@H](O[C@H]2C[C@@](C)(OC)[C@@H](O)[C@H](C)O2)[C@H](C)[C@@H](O[C@@H]2O[C@H](C)C[C@H](N(C)CCc3ccc(-n4cc(C)ccc4=O)cc3)[C@H]2O)[C@](C)(O)C[C@@H](C)CN(C)[C@H](C)[C@@H](O)[C@]1(C)O [Compound 13a] | 36.1 ± 3.3 | 27.2 ± 2.3 | 30.3 ± 5.2 | 40.8 ± 4 |  |  |  |  |  | 
11 | CC[C@@H]1OC(=O)[C@@H](C)[C@H](O)[C@@H](C)[C@H](O[C@@H]2O[C@H](C)C[C@H](N(C)C)[C@H]2OC(=O)CCCC[C@H]2CCSS2)C(C)(O)C[C@H](C)CN(C)[C@@H](C)[C@H](O)[C@@]1(C)O (stereo partly drawn) | 143 ± 17.1 | 225 ± 12.8 | 273 ± 26.9 | 282 ± 14.3 |  |  |  |  |  | 400 ± 32.4
